Laboratory results from patent publication US7846434B2, “Materials and methods for improved immunoglycoproteins” (Trubion Pharmaceuticals, Inc., priority 2006, dated 2010).
Values joined by “and” are separate entries in the source; they are usually repeats but may differ in a detail not shown here. Identical values can stand only once.

How the values were obtained:
[1] = system: DG44 CHO cells transfected with TRU-016; test: Effect of castanospermine on DG44 CHO TRU-016 production, 3 L bioreactors; assay type: cell-based, Chinese hamster; conditions: for TRU-016 Produced as a % of Control: control average 427.7 ug/mL; for Viability at Harvest (%): harvest day 8
Method: Prior to growth in bioreactors, DG44 CHO cells transfected with TRU-016 were grown in the absence of castanospermine in vented shake flasks as described in Example 8.
For the bioreactor run, 3 L Applikon bioreactors were used. Growth media for cells was as described in Example 8 except that there was no methotrexate present. Starting culture volume for each bioreactor was 1700 mLs with a starting density of 3.5×10^5 cells/mL. A total of eight bioreactors were run in pairs with CS at 0 μM, 300 μM, 350 μM and 400 μM final concentration (one of the 400 μM CS bioreactors was lost to contamination on day 2 of culture). Castanospermine was added at the initiation of culture in the bioreactors with no further addition during the culture period. Other culture conditions included a temperature set point of 37° C., pH set point of 6.9 and dissolved O2 set point of 50%. Bioreactors were run in a fed-batch mode with L-glutamine and glucose added on an as needed basis. Soy hydrolysate (CHO Feed Bioreactor Supplement—C1615—Sigma) was added at 1% of starting culture volume on days 2, 4 and 6. Bioreactors were sampled daily for viable cell density, percent viable cells, media chemistries and osmolality. All cultures were harvested on day 8 when overall cell viability ranged from 39-50%.

CD37 = test: Binding of TRU-016 to CD37 expressing Daudi cells; parameters: species or system human
Method: The cells are then incubated with a FITC-conjugated goat anti-human IgG Fc specific antibody (Caltag H10501). This antibody will bind to the Fc region of the human IgG chain of TRU-016 bound to the cells. The antibody is diluted 1:50 in FACS buffer and 100 μL is added to each well. The plate is incubated at 4° C. in the dark for 45 minutes. Any unbound FITC-labeled antibody is removed by adding 100 μL of FACS buffer to each well, centrifuging at 250×g for 3 minutes at 15° C. followed by removal of supernatant. This is followed by a second wash with 200 μL/well FACS buffer. The cells are resusupended with 200 μL/well 2% paraformaldehyde and stored at 4° C. overnight. Each sample's bound fluorescence is measured on a BD FACSCalibur flow cytometry system and analyzed using Cell Quest Pro software (Becton Dickinson, ver 5.2). The GeoMean fluorescence intensity for each sample is plotted relative to the TRU-016 concentration. A dose response curve is generated and fit to a 4-parameter logistic (4-PL) curve using the SoftMax Pro software (Molecular Devices, ver 5.0.1). Titrations of TRU-016 are utilized to create a dose response curve of the untreated control and CS treated samples for comparison.

In the case of `O[C@H]1[C@H](O)[C@@H](O)CN2CC[C@H](O)[C@H]12` [castanospermine], the “TRU-016 Produced as a % of Control” value ([1]; CS 300 μM, listed as CS) is reported as 68.0% and 75.1%, the “Viability at Harvest (%)” value ([1]; CS 300 μM, listed as CS) is reported as 48.8% and 42.4% and the “ICA (10^6 cells * days/mL)” value ([1]; CS 300 μM, listed as CS) is reported as 47.5 10^6 cells * days/mL and 46.2 10^6 cells * days/mL. The “Specific Productivity (pg/cell/day)” value ([1]; CS 300 μM, listed as CS) was 6.12 pg/cell/day and 6.96 pg/cell/day, the “TRU-016 Produced” value ([1]; CS 300 μM, listed as CS) was 291.0 µg/mL and 321.3 µg/mL and the “TRU-016 Produced as a % of Control” value ([1]; CS 350 μM, listed as CS) was 73.6% and 74.4%. For the same compound, the “Viability at Harvest (%)” value ([1]; CS 350 μM, listed as CS) was 39.0% and 41.6%, the “ICA (10^6 cells * days/mL)” value ([1]; CS 350 μM, listed as CS) was 46.6 10^6 cells * days/mL and 45.5 10^6 cells * days/mL and the “Specific Productivity (pg/cell/day)” value ([1]; CS 350 μM, listed as CS) was 6.75 pg/cell/day and 7.00 pg/cell/day. For the same compound, the “TRU-016 Produced” value ([1]; CS 350 μM, listed as CS) was 314.7 µg/mL and 318.1 µg/mL, the “ICA (10^6 cells * days/mL)” value ([1]; CS 400 μM) was 47.9 10^6 cells * days/mL and the “Specific Productivity (pg/cell/day)” value ([1]; CS 400 μM) was 6.49 pg/cell/day. The “TRU-016 Produced” value ([1]; CS 400 μM) was 311.0 µg/mL, the “TRU-016 Produced as a % of Control” value ([1]; CS 400 μM) was 72.7% and the “Viability at Harvest (%)” value ([1]; CS 400 μM) was 50.4%. For the same compound, the “suppression of TRU-016 production relative to non-treated control bioreactors” value ([1]; CS 300-400 μM) was 24.9-32%, the “cell growth and viability in the bioreactors” value ([1]; CS 300-400 μM vs no CS) was “quite comparable” and the “binding of TRU-016 to CD37 expressing cells (dose response curves)” value (CD37; CHO-K1 produced glycovariants vs control) was “did not alter”. The “binding of TRU-016 to CD37 expressing cells (dose response curves)” value (CD37; DG44 CHO produced, all CS treated samples vs untreated) was “did not alter”.
